From US7166616B2, “Substituted alkanoic acids” (Aventis Pharma Limited, priority 2000, dated 2007)

Row | Compound | melting point [°C]
1 | Cc1ccccc1Nc1nc2ccc(CC(=O)Nc3ccc(C4(CC(=O)O)CCCC4)cc3)cc2o1 [Example 1, (1-{4-[2-(2-o-Tolylamino-benzoxazol-6-yl)-acetylamino]-phenyl}-cyclopentyl)-acetic acid] | 123 to 126
2 | COc1cc(CC(=O)Nc2ccc(C3(CC(=O)O)CCCC3)cc2)ccc1NC(=O)Nc1ccccc1C [Example 2, [1-{4-[2-[3-Methoxy-4-[3-o-tolyl-ureido]-phenyl]-acetylamino]-phenyl}-cyclopentyl]-acetic acid] | 223 to 226
